Test results as given in patent US20140349955A1, “USE OF FLUORINE-CONTAINING WATER SOLUBLE PLATINUM COMPLEX IN PREPARING DRUGS FOR PREVENTION AND TREATMENT OF CANCERS” (GUDUI BIOPHARMA TECHNOLOGY INC., priority 2011, published 2014).

What was measured:
[1] = test system: L1210 tumor cells; experiment: Antitumor efficacy in L1210 tumor-bearing CDF1 mice (increase in life span); type: in vivo
Procedure: In the following test, antitumor efficacy studies were performed using 8-9 weeks old female CDF1 mice, the average weight of the animal is 20-25 grams. L1210 tumor cells (about 10^5 cells per mouse) were inoculated intraperitoneally. The fluorine-containing water-soluble platinum complexes were used to treat the tumor-bearing animals and the efficacy was compared compared with the clinical platinum antitumor drugs. […] Drugs were administered intraperitoneally on day 1 and day 4 after tumor cell transplantation. The number of experimental animals in each group was 6.
The experimental animals were purchased from Vital River Laboratory Animal Technology Co. Ltd., Tumor cells L1210-leukemia cells were purchased from Shanghai An Yan Commercial Trade Co. Ltd.
The increase in life span (ILS) is calculated as follows:
Wherein, St=the weighted median survival time of treated animals; Su=the weighted median survival time of untreated animals

[2] = test system: A549; experiment: Synergistic cytotoxicity test (MTS), A549; type: cell-based, human; settings: 96 h
Procedure: (§1) Containing 10% bovine fetal serum, 1 mM of sodium pyruvate, 2 mM of L-glutamine, 50 U/mL of penicillin, 50 μg/ mL of streptomycin.
(§2) Human tumor cells: du145-human prostate cancer; MCF-7-human breast cancer; SK0V3-human ovarian carcinoma, HT-29-human colon cancer; A549-human non-small cell lung cancer (adenocarcinoma), H460-human non-small cell lung cancer (large cell carcinoma), and animal tumor cells: L1210-mice leukemia cells used in the following activity test experiments were all purchased from Shanghai An Yan Commercial Trade Co., Ltd.
(§3) MTS test method was used in cytotoxicity assay. The tumor cells of logarithmic phase were collected, and then the concentration of cell suspension was adjusted, 100 μL of the cell suspension was added to each well, the cells were placed at 1000-10000 cells/well (edge well filled with sterile PBS). Cells were incubated at 37° C. with 5% CO2 to make cell monolayer overspread the bottom of each well (96-well flat-bottomed microplate). 100 μL of certain concentration solution of a mixture of the fluorine-containing water-soluble platinum complex with other antitumor agents was added to each well. Each condition was measured in five replicates. The microplate was incubated at 37° C. with 5% CO2 for 96 h and checked with inverted microscope. MTS working reagent: To 2 mL of MTS (2 mg/mL, prepared by DPBS) was added 100 μL of PMS (1 mg/mL, prepared by DPBS). The cell culture medium was discarded after centrifugation, the cell culture plate was carefully washed 2-3 times with PBS. Before detecting the absorbance value (OD), to each sample containing well was added 100 μL of cell culture medium, then 20 μL of MTS working reagent was added. After incubation at 37° C. with 5% CO2 for 2 h, the OD (optical density) value was detected at 490 nm.
(§4) Each of above experiment was repeated five times, and the cell viability was calculated according to the mean OD values.
(§5) Cell Viability (%)=(treated group OD value/control group OD value)×100
(§6) Control group: the conditions are the same as the above without adding the tested drug mixture (100 μL of culture medium was added in stead), and finally the absorbance was measured at 490 nm to obtain the OD value of the tumor cells.
(§7) Drug Group-1: only the fluorine-containing water-soluble platinum complex was added under the above conditions to obtain cell viability of tumor cells.
(§8) Drug Group-2: only the other chemotherapeutic drug (active ingredient) was added under the above conditions to obtain cell viability of tumor cells.
(§9) Drug Combination Group: the fluorine-containing water-soluble platinum complex and other chemotherapeutic drugs were added simultaneously under the above conditions to obtain cell viability of tumor cell. (2) Evaluation Method:
(§10) When the fluorine-containing water-soluble platinum complexes used in combination with other chemotherapy drugs, the inhibition effect on cancer cell proliferation is enhanced or synergistic, and the effect was calculated using the following formula:
(§11) Combination Effect (%)={[(A1-X)+(A2-X)]/(A1-A2)|}×100
(§12) wherein, A1 is the cell viability of drug group-1, A2 is the cell viability of drug group-2, X is the cell viability of drug combination group, (A1-A2)| is the absolute value of the cell viability difference between the two groups.
(§13) Calculated according to the above formula, when the results of [Combination Effect (%)]>+100%, that means the effect of inhibition on cell proliferation is enhanced or synergistic (3) Experimental Result: […]

[3] = test system: SK0V3; experiment: Synergistic cytotoxicity test (MTS), SKOV3; type: cell-based, human; settings: 96 h
Procedure: as §1, §2, §3, §4, §5, §6, §7, §8, §9, §10, §11, §12, §13

[4] = test system: MCF7; experiment: Synergistic cytotoxicity test (MTS), MCF7; type: cell-based, human; settings: 96 h
Procedure: as §1, §2, §3, §4, §5, §6, §7, §8, §9, §10, §11, §12, §13

[5] = test system: HT29; experiment: Synergistic cytotoxicity test (MTS), HT29; type: cell-based, human; settings: 96 h
Procedure: as §1, §2, §3, §4, §5, §6, §7, §8, §9, §10, §11, §12, §13

[6] = test system: DU145; experiment: Synergistic cytotoxicity test (MTS), DU145; type: cell-based, human; settings: 96 h
Procedure: as §1, §2, §3, §4, §5, §6, §7, §8, §9, §10, §11, §12, §13

[7] = test system: H460; experiment: Synergistic cytotoxicity test (MTS), H460; type: cell-based, human; settings: 96 h
Procedure: as §1, §2, §3, §4, §5, §6, §7, §8, §9, §10, §11, §12, §13

[8] = 50 mg/Kg i.p. on day 1 and day 4
[9] = 100 mg/Kg i.p. on day 1 and day 4
[10] = 200 mg/Kg i.p. on day 1 and day 4
[11] = other chemotherapy drug (at its listed dosage) combined with Complex 2 (dosage: 1 μM)
[12] = other chemotherapy drug (at its listed dosage) combined with Complex 3 (dosage: 1 μM)
[13] = other chemotherapy drug (at its listed dosage) combined with Complex 2 (dosage: 1 μM), SLOV3
[14] = other chemotherapy drug (at its listed dosage) combined with Complex 3 (dosage: 1 μM), SlOV3
[15] = other chemotherapy drug (at its listed dosage) combined with Complex 5 (dosage: 1 μM), SLOV3
[16] = other chemotherapy drug (at its listed dosage) combined with Complex 6 (dosage: 1 μM), SLOV3
[17] = other chemotherapy drug (at its listed dosage) combined with Complex 5 (dosage: 1 μM)
[18] = other chemotherapy drug (at its listed dosage) combined with Complex 6 (dosage: 1 μM)
[19] = 1.25 mg/Kg i.p. on day 1 and day 4
[20] = 2.5 mg/Kg i.p. on day 1 and day 4
[21] = 5.0 mg/Kg i.p. on day 1 and day 4

SMILES	the effect of drug combination (Combination Effect) [2, 11]	the effect of drug combination (Combination Effect) [2, 12]	the effect of drug combination (Combination Effect) [3, 13]	the effect of drug combination (Combination Effect) [3, 14]	the effect of drug combination (Combination Effect) [3, 15]	the effect of drug combination (Combination Effect) [3, 16]	the effect of drug combination (Combination Effect) [4, 11]	the effect of drug combination (Combination Effect) [4, 12]	the effect of drug combination (Combination Effect) [4, 17]	the effect of drug combination (Combination Effect) [4, 18]	the effect of drug combination (Combination Effect) [5, 11]	the effect of drug combination (Combination Effect) [5, 12]	the effect of drug combination (Combination Effect) [5, 17]	the effect of drug combination (Combination Effect) [5, 18]	the effect of drug combination (Combination Effect) [6, 11]	the effect of drug combination (Combination Effect) [6, 12]	the effect of drug combination (Combination Effect) [6, 17]	the effect of drug combination (Combination Effect) [6, 18]	the effect of drug combination (Combination Effect) [7, 17]	the effect of drug combination (Combination Effect) [7, 18]	further results
[NH2][Pt]1([NH2])[O]C(=O)C(F)(CCCOC2OC(CO)C(O)C(O)C2O)C(=O)[O]1 (stereo not drawn) [Complex 15]																					ILS (%) [1, 8]: >380%; Survived Animals on Day 42 [1, 8]: 6/6; Weight Changes (g) ([1]; 50 mg/Kg i.p. on day 1 and day 4, weight changes from the first day to the seventh day): +1.0 g; ILS (%) [1, 9]: >380%; Survived Animals on Day 42 [1, 9]: 6/6; Weight Changes ([1]; 100 mg/Kg i.p. on day 1 and day 4, weight changes from the first day to the seventh day): -0.3 g; ILS (%) [1, 10]: >380%; Survived Animals on Day 42 [1, 10]: 6/6; Weight Changes ([1]; 200 mg/Kg i.p. on day 1 and day 4, weight changes from the first day to the seventh day): -0.8 g
N.N.[Cl][Pt+2][Cl] [Transplatin]	⊚ (⊚ represents the effect of drug combination > 300%)	⊚ (⊚ represents the effect of drug combination > 300%)	○ (○ represents: 100% < the effect of drug combination < 300%)	○ (○ represents: 100% < the effect of drug combination < 300%)	○ (○ represents: 100% < the effect of drug combination < 300%)	○ (○ represents: 100% < the effect of drug combination < 300%)	⊚ (⊚ represents the effect of drug combination > 300%)	⊚ (⊚ represents the effect of drug combination > 300%)	⊚ (⊚ represents the effect of drug combination > 300%)	⊚ (⊚ represents the effect of drug combination > 300%)	⊚ (⊚ represents the effect of drug combination > 300%)	⊚ (⊚ represents the effect of drug combination > 300%)	⊚ (⊚ represents the effect of drug combination > 300%)	⊚ (⊚ represents the effect of drug combination > 300%)	○ (○ represents: 100% < the effect of drug combination < 300%)	○ (○ represents: 100% < the effect of drug combination < 300%)	○ (○ represents: 100% < the effect of drug combination < 300%)	○ (○ represents: 100% < the effect of drug combination < 300%)	⊚ (⊚ represents the effect of drug combination > 300%)	⊚ (⊚ represents the effect of drug combination > 300%)	
N.N.[Cl][Pt][Cl] [Cisplatin]																					ILS (%) [1, 19]: 36%; Survived Animals on Day 42 [1, 19]: 0/6; ILS (%) [1, 20]: 100%; Survived Animals on Day 42 [1, 20]: 0/6; ILS (%) [1, 21]: 236%; Survived Animals on Day 42 [1, 21]: 3/6
O=c1[nH]cc(F)c(=O)[nH]1 [5-Fluorouracil]	⊚ (⊚ represents the effect of drug combination > 300%)	⊚ (⊚ represents the effect of drug combination > 300%)	⊚ (⊚ represents the effect of drug combination > 300%)	⊚ (⊚ represents the effect of drug combination > 300%)	⊚ (⊚ represents the effect of drug combination > 300%)	⊚ (⊚ represents the effect of drug combination > 300%)	⊚ (⊚ represents the effect of drug combination > 300%)	⊚ (⊚ represents the effect of drug combination > 300%)	⊚ (⊚ represents the effect of drug combination > 300%)	⊚ (⊚ represents the effect of drug combination > 300%)	⊚ (⊚ represents the effect of drug combination > 300%)	⊚ (⊚ represents the effect of drug combination > 300%)	⊚ (⊚ represents the effect of drug combination > 300%)	⊚ (⊚ represents the effect of drug combination > 300%)	⊚ (⊚ represents the effect of drug combination > 300%)	⊚ (⊚ represents the effect of drug combination > 300%)	⊚ (⊚ represents the effect of drug combination > 300%)	⊚ (⊚ represents the effect of drug combination > 300%)	⊚ (⊚ represents the effect of drug combination > 300%)	⊚ (⊚ represents the effect of drug combination > 300%)	
CCc1c2c(nc3ccc(OC(=O)N4CCC(N5CCCCC5)CC4)cc13)-c1cc3c(c(=O)n1C2)COC(=O)[C@]3(O)CC [Irinotecan]	⊚ (⊚ represents the effect of drug combination > 300%)	⊚ (⊚ represents the effect of drug combination > 300%)	⊚ (⊚ represents the effect of drug combination > 300%)	⊚ (⊚ represents the effect of drug combination > 300%)	⊚ (⊚ represents the effect of drug combination > 300%)	⊚ (⊚ represents the effect of drug combination > 300%)	○ (○ represents: 100% < the effect of drug combination < 300%)	○ (○ represents: 100% < the effect of drug combination < 300%)	○ (○ represents: 100% < the effect of drug combination < 300%)	○ (○ represents: 100% < the effect of drug combination < 300%)	⊚ (⊚ represents the effect of drug combination > 300%)	⊚ (⊚ represents the effect of drug combination > 300%)	⊚ (⊚ represents the effect of drug combination > 300%)	⊚ (⊚ represents the effect of drug combination > 300%)	○ (○ represents: 100% < the effect of drug combination < 300%)	○ (○ represents: 100% < the effect of drug combination < 300%)	○ (○ represents: 100% < the effect of drug combination < 300%)	○ (○ represents: 100% < the effect of drug combination < 300%)	⊚ (⊚ represents the effect of drug combination > 300%)	⊚ (⊚ represents the effect of drug combination > 300%)	
